Drawing on patent US10640515B2, “Hepatitis C virus inhibitor and uses thereof” (priority 2016, dated 2020), this text covers bioavailability, EC50 and CC50 for 15 compounds.

The conditions of data set [1]: in the rats, reported in a literature; cited from earlier work.
Data set [2] has as its system HCV 1b-genotype replicon Con1b. Description: HCV replicon luciferase assay, HCV-1b replicon (Huh7-Con1b, firefly luciferase). The class given is cell-based. As to conditions: Hepatitis C virus, Huh7-Con1b cells, 72 hours. The text has this:
(§1) In brief, three stably-transfected cell lines containing different HCV genotypes of replicons were used to test activity of the compounds in inhibiting the HCV replication.
(§2) A Huh7-Con1b cell line contained an HCV 1b-genotype replicon Con1b and a reporter gene of firefly luciferase. An Huh7-H77 and an Huh7-JFH1 cell line both contained a reporter gene of renilla luciferase and respectively contained an HCV 1a-genetype replicon H77 and an HCV 2a-genetype replicon JFH1. The replication level of HCV in host cells can be characterized by the expression of the firefly luciferase gene or the renilla luciferase gene. The effect of the compounds described herein on the HCV replication can be evaluated through a chemiluminescence detection of the expression of the above two luciferase genes. Meanwhile, the CC50 value of each Huh7 cell line was measured using a CellTiter GLO kit to evaluate the toxicity of the compounds.
(§3) The compounds described herein were subjected to three-fold serial dilutions using a Bravo liquid treatment system to obtain a total of 11 concentration points prior to cell plating. The prepared compounds were added to cell culture plates using an Echo 550 system. The Huh7-H77 and the Huh7-JFH1 cells were inoculated into the 96-well plate added with the compounds at an amount of 10000 cells per well. The Huh7-Con1b and the Huh7 cells were inoculated into the 384-well plate added with the compounds at an amount of 5000 cells per well. The cell culture plates were incubated in a CO2 incubator (5%) at 37° C. for 72 hours.
The 384-well plate was taken out of the incubator and cooled at room temperature for 30 minutes. After removing the medium, each well was added with 50 μL of DPBS (Dulbecco's Phosphate Buffered Saline) and then added with 50 μL of a Britelit plus reagent (PerkinElmer Inc.). Then the 384-well plate was placed in a shaker at a shaking rate of 1000 rpm at room temperature for 1 minute. Finally, the 384-well plate was read using an Envision Plate Reader at a signal accumulation time of per well of 0.1 s.

Data set [3] is described as follows: CC50 by CellTiter-GLO kit, HCV-2a replicon cell. As to conditions: human. The class given is cell-based.
From the text: as §2, §3
(§4) The CellTiter-GLO reagent was heated to room temperature. The 384-well plate plated with the Huh 7 cells was transferred from the incubator and cooled at room temperature for 20 minutes. Each well was added with 50 μL of the CellTiter-GLO reagent (Promega Inc.), and then the 384-well plate was shaken for 2 minutes. The 384-well plate was subsequently incubated in a dark environment at room temperature for 10 minutes. After the incubation, the 384-well plate was read using an Envision Plate Reader at a signal accumulation time of per well of 0.1 s.
For orientation: In ATP-based viability assays light output follows the ATP content of the culture.

A short description of data set [4]: CC50 by CellTiter-GLO kit, HCV-1a replicon cell. The class given is cell-based. As to conditions: human.
From the text: as §2, §3, §4

For data set [5], the system named is HCV 2a-genetype replicon JFH1. The data set can be described thus: HCV replicon luciferase assay, HCV-2a replicon (Huh7-JFH1, renilla luciferase). The class given is cell-based, hepatitis C virus (HCV). The conditions noted are these: Huh7-JFH1 cells.
From the text: (§5) The HCV replicon was first reported in Science. 1999 Jul. 2; 285 (5424), 110-3. The HCV replicon system has been one of the most important tools to investigate the RNA replication, pathogenicity and virus persistence of HCV. For example, the replicon has been successfully used to verify the 5′-NCR minimum region essential for HCV RNA replication, in addition, the HCV replicon system has been successfully used as an evaluation model for antiviral drugs.
as §1, §2, §3
(§6) The 96-well plate was taken out of the incubator and cooled at room temperature for 30 minutes. After removing the medium, each well was added with 30 μL of a diluted Promega lysate (diluted using pure water in a volume ratio of 1:4). The 96-well plate was placed in a shaker at a shaking rate of 1000 rpm at room temperature for 15 minutes. Each well was added with 100 μL of a diluted Premega luciferase reagent (Promega Inc.) (diluted using a substrate buffer in a volume ratio of 1:99) and then, the 96-well plate was immediately read using an Envision Plate Reader at a signal accumulation time of per well of 0.1 s.
In general terms: A replicon is a self-replicating genome or part of one, used to study replication in cells.

Data set [6] can be described thus: CC50 by CellTiter-GLO kit, HCV-1b replicon cell. The class given is cell-based. The conditions noted are these: human.
From the text: as §2, §3, §4

Data set [7] concerns HCV 1a-genetype replicon H77. Description: HCV replicon luciferase assay, HCV-1a replicon (Huh7-H77, renilla luciferase). The class given is cell-based. The conditions noted are these: Hepatitis C virus, Huh7-H77 cells, 72 hours.
From the text: as §5, §1, §2, §3, §6

For the compound `COC(=O)N[C@H](C(=O)N1CCC[C@H]1C(=O)Nc1ccc([C@@H]2CC[C@@H](c3ccc(NC(=O)[C@@H]4CCCN4C(=O)[C@@H](NC(=O)OC)C(C)C)cc3)N2c2ccc(C(C)(C)C)cc2)cc1)C(C)C` [ABT-267], the bioavailability (commonly dose-corrected exposure relative to a reference, in per cent) in data set [1] is 100%.

For `COC(=O)N[C@H](C(=O)N1CCC[C@H]1C(=O)Nc1ccc2c(c1)O[C@H](c1ccccc1)n1c-2cc2cc(NC(=O)[C@@H]3CCCN3C(=O)[C@@H](NC(=O)OC)C(C)C)ccc21)C(C)C` [PA6001-A], the EC50 (as a rule, the concentration that produces a half-maximal response) in data set [2] was determined as 0.00814 nM; in data set [5] (Hepatitis C virus, 72 h), 0.0546 nM; in data set [7] it was 2.94 nM. The CC50 at 72 h in data set [3], in data set [4] and in data set [6] was over 100 nM in each case.

Regarding `COC(=O)N[C@H](C(=O)N1CCC[C@H]1C(=O)Nc1ccc2c(c1)O[C@@H](c1ccccc1)n1c-2cc2cc(NC(=O)[C@@H]3CCCN3C(=O)[C@@H](NC(=O)OC)C(C)C)ccc21)C(C)C` [PA6001-B], the EC50 in data set [2] came to 0.0068 nM; in data set [5] (Hepatitis C virus, 72 h) it was 0.0626 nM; in data set [7], 0.0593 nM. Also, the CC50 at 72 h in data set [3], in data set [4] and in data set [6] was over 100 nM in each case.

Take `COC(=O)N[C@H](C(=O)N1CCC[C@H]1C(=O)Nc1ccc2c(c1)OC(c1ccccc1)n1c-2cc2cc(NC(=O)[C@@H]3CCCN3C(=O)[C@@H](NC(=O)OC)C(C)C)ccc21)C(C)C` (some centres unmarked) [PA6001]: the EC50 amounted to 0.02 nM in data set [2]; 0.059 nM in data set [5] (Hepatitis C virus, 72 h); 1.57 nM in data set [7]. In addition, the CC50 at 72 h in data set [3], in data set [4] and in data set [6] was over 100 nM in each case.

Take `COC(=O)N[C@H](C(=O)N1CC2(CC2)C[C@H]1C(=O)Nc1ccc2c(c1)OC(c1ccccc1)n1c-2cc2cc(NC(=O)[C@@H]3CC4(CC4)CN3C(=O)[C@@H](NC(=O)OC)C(C)C)ccc21)C(C)C` (some centres unmarked) [PA6002]: the EC50 in data set [2] stood at 0.005 nM; in data set [5] (Hepatitis C virus, 72 h), 0.148 nM; in data set [7], 0.03 nM. In addition, the CC50 at 72 h in data set [3], in data set [4] and in data set [6] was over 100 nM in each case.

As for `COC(=O)N[C@H](C(=O)N1C[C@H](F)C[C@H]1C(=O)Nc1ccc2c(c1)OC(c1ccccc1)n1c-2cc2cc(NC(=O)[C@@H]3C[C@H](F)CN3C(=O)[C@@H](NC(=O)OC)C(C)C)ccc21)C(C)C` (some centres unmarked) [PA6010], the EC50 in data set [2] was found to be 0.00449 nM; in data set [5] (Hepatitis C virus, 72 h), 0.2 nM; in data set [7], 0.107 nM. The CC50 at 72 h in data set [3], in data set [4] and in data set [6] was over 100 nM throughout.

As to `COC(=O)N[C@H](C(=O)N1CC(F)(F)C[C@H]1C(=O)Nc1ccc2c(c1)OC(c1ccccc1)n1c-2cc2cc(NC(=O)[C@@H]3CC(F)(F)CN3C(=O)[C@@H](NC(=O)OC)C(C)C)ccc21)C(C)C` (some centres unmarked) [PA6011], the EC50 in data set [2] stood at 0.00118 nM; in data set [5] (Hepatitis C virus, 72 h), 0.312 nM; in data set [7], 0.0476 nM. For the same compound, the CC50 at 72 h in data set [3], in data set [4] and in data set [6] was over 100 nM in each case.

Regarding `COC(=O)N[C@H](C(=O)N1CCC[C@H]1C(=O)Nc1ccc2c(c1)O[C@@H](c1cc(F)cc(F)c1)n1c-2cc2cc(NC(=O)[C@@H]3CCCN3C(=O)[C@@H](NC(=O)OC)C(C)C)ccc21)C(C)C` [PA6016-B], the EC50 came out at 0.00434 nM in data set [2]; 0.0615 nM in data set [5] (Hepatitis C virus, 72 h); 0.018 nM in data set [7]. In addition, the CC50 at 72 h in data set [3], in data set [4] and in data set [6] was over 100 nM throughout.

In the case of `COC(=O)N[C@H](C(=O)N1CCC[C@H]1C(=O)Nc1ccc2c(c1)OC(c1cc(F)cc(F)c1)n1c-2cc2cc(NC(=O)[C@@H]3CCCN3C(=O)[C@@H](NC(=O)OC)C(C)C)ccc21)C(C)C` (some centres unmarked) [PA6016], the EC50 in data set [2] is 0.00365 nM; in data set [5] (Hepatitis C virus, 72 h) it was 0.04 to 0.05 nM; in data set [5] (72 hours) it was 0.0499 nM; in data set [7], 0.0433 nM. Further, the CC50 at 72 h in data set [3], in data set [4] and in data set [6] was over 100 nM each time.

With `COC(=O)N[C@H](C(=O)N1CC2(CC2)C[C@H]1C(=O)Nc1ccc2c(c1)OC(c1cc(F)cc(F)c1)n1c-2cc2cc(NC(=O)[C@@H]3CC4(CC4)CN3C(=O)[C@@H](NC(=O)OC)C(C)C)ccc21)C(C)C` (some centres unmarked) [PA6017], the EC50 worked out at 0.00236 nM in data set [2]; 0.743 nM in data set [5] (Hepatitis C virus, 72 h); 0.0268 nM in data set [7]. Further, the CC50 at 72 h in data set [3], in data set [4] and in data set [6] was over 100 nM each time.

With `COC(=O)N[C@H](C(=O)N1C[C@H](F)C[C@H]1C(=O)Nc1ccc2c(c1)OC(c1cc(F)cc(F)c1)n1c-2cc2cc(NC(=O)[C@@H]3C[C@H](F)CN3C(=O)[C@@H](NC(=O)OC)C(C)C)ccc21)C(C)C` (some centres unmarked) [PA6018], the EC50 in data set [2] stood at 0.00295 nM; in data set [5] (Hepatitis C virus, 72 h), 0.102 nM; in data set [7], 0.0351 nM. For the same compound, the CC50 at 72 h in data set [3], in data set [4] and in data set [6] was over 100 nM each time.

Turning to `COC(=O)N[C@H](C(=O)N1CC(F)(F)C[C@H]1C(=O)Nc1ccc2c(c1)OC(c1cc(F)cc(F)c1)n1c-2cc2cc(NC(=O)[C@@H]3CC(F)(F)CN3C(=O)[C@@H](NC(=O)OC)C(C)C)ccc21)C(C)C` (some centres unmarked) [PA6019], the CC50 at 72 h in data set [3], in data set [4] and in data set [6] was over 100 nM in each case. The EC50 in data set [5] (Hepatitis C virus, 72 h) turned out to be 0.234 nM; in data set [7], 0.0534 nM.

Regarding `COC(=O)N[C@H](C(=O)N1CCC[C@H]1C(=O)Nc1ccc2c(c1)O[C@@H](c1c(F)c(F)c(F)c(F)c1F)n1c-2cc2cc(NC(=O)[C@@H]3CCCN3C(=O)[C@@H](NC(=O)OC)C(C)C)ccc21)C(C)C` [PA6030], the 50% effective concentration (EC50) in data set [2] came to 0.00315 nM; in data set [5] (Hepatitis C virus, 72 h), 0.207 nM; in data set [7], 0.0763 nM. Besides, the CC50 at 72 h in data set [3], in data set [4] and in data set [6] was over 100 nM in each case.

For the compound `COC(=O)N[C@H](C(=O)N1CCC[C@H]1C(=O)Nc1ccc2c(c1)O[C@@H](c1c(F)c(F)cc(F)c1F)n1c-2cc2cc(NC(=O)[C@@H]3CCCN3C(=O)[C@@H](NC(=O)OC)C(C)C)ccc21)C(C)C` [PA6031], the EC50 in data set [2] is 0.0023 nM; in data set [5] (Hepatitis C virus, 72 h), 0.04 to 0.05 nM; in data set [5] (72 hours), 0.0401 nM; in data set [7] it was 0.0369 nM. In addition, the CC50 at 72 h in data set [3], in data set [4] and in data set [6] was over 100 nM each time.

Take `COC(=O)N[C@H](C(=O)N1CCC[C@H]1C(=O)Nc1ccc2c(c1)O[C@@H](c1cc(F)c(F)c(F)c1)n1c-2cc2cc(NC(=O)[C@@H]3CCCN3C(=O)[C@@H](NC(=O)OC)C(C)C)ccc21)C(C)C` [PA6032]: the EC50 in data set [2] came out at 0.00304 nM; in data set [5] (Hepatitis C virus, 72 h) it was 0.147 nM; in data set [7], 0.0168 nM. Also, the CC50 at 72 h in data set [3], in data set [4] and in data set [6] was over 100 nM each time.
